In PubChem BioAssay (NCI) one finds TGI data, which are given here for 10 compounds.

Among the test systems are ACHN renal; CCRF-CEM leukemia; COLO 205 colon; HCC-2998 colon; K-562 leukemia; LOX IMVI melanoma; MOLT-4 leukemia; NCI-H23 lung; NCI-H460 lung; NCI/ADR-RES ovarian; OVCAR-3 ovarian; PC-3 prostate; SF-268 CNS; SF-295 CNS; SK-MEL-2 melanoma; SN12C renal; SNB-75 CNS; SW-620 colon; U251 CNS; UACC-62 melanoma.
Common to all, as to experiment: growth of human tumour cells (NCI), 48 h

Each structure is given as a SMILES string.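 How tested: cells in 96-well plates exposed to compound for 48 hours at five concentrations. TGI denotes the concentration required for complete inhibition of growth.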 Where only a bound is given, the exact number is not on record here.

For the compound `CC1OC(OC2C(CO)OC(O[C@H]3CC[C@@]4(C)C(=CC[C@H]5[C@@H]6C[C@@H]7O[C@](O)(CC[C@H](CO)COC8OC(CO)C(O)C(O)C8O)[C@@H](C)[C@@H]7[C@@]6(C)CC[C@@H]54)C3)C(OC3OC(C)C(O)C(O)C3O)C2O)C(O)C(O)C1O` (stereo not given in full), the TGI in the test on ACHN renal, in the test with CCRF-CEM leukemia, in the test on COLO 205 colon, in the test on HCC-2998 colon, in the test on K-562 leukemia and in the test with LOX IMVI melanoma was over 100 µM throughout. The TGI in the test with MOLT-4 leukemia, with NCI-H23 lung, with NCI-H460 lung, with NCI/ADR-RES ovarian, with OVCAR-3 ovarian and with PC-3 prostate was over 100 µM in each case. Besides, the TGI with SF-268 CNS, with SF-295 CNS, in the test on SK-MEL-2 melanoma, in the test with SN12C renal, in the test on SNB-75 CNS and in the test with SW-620 colon was over 100 µM throughout. Further, the TGI in the test with U251 CNS and in the test with UACC-62 melanoma was over 100 µM in each case.

With `CC[C@@H]1CC[C@@H]2[C@H](CC[C@]3(C)[C@@H](O)CC[C@@H]23)[C@H]1CO`, the TGI in the test on ACHN renal, with CCRF-CEM leukemia, with COLO 205 colon, in the test with HCC-2998 colon, in the test with K-562 leukemia and in the test with LOX IMVI melanoma was over 100 µM throughout. Besides, the TGI in the test on MOLT-4 leukemia, in the test with NCI-H23 lung, with NCI-H460 lung, in the test on NCI/ADR-RES ovarian, with OVCAR-3 ovarian and with PC-3 prostate was over 100 µM each time. In addition, the TGI with SF-268 CNS, in the test on SF-295 CNS, with SK-MEL-2 melanoma, in the test on SN12C renal, in the test on SNB-75 CNS and with SW-620 colon was over 100 µM each time. The TGI in the test with U251 CNS and in the test on UACC-62 melanoma was over 100 µM in each case.

As for `Nc1ncnc2c1ncn2C1C=CC(COS(N)(=O)=O)C1` (stereo not given), the TGI in the test with ACHN renal is over 100 µM; in the test with CCRF-CEM leukemia, over 100 µM; with COLO 205 colon, over 100 µM; with HCC-2998 colon, over 100 µM; in the test with K-562 leukemia, over 100 µM; in the test with LOX IMVI melanoma, 37.6 µM. The TGI was over 100 µM in the test on MOLT-4 leukemia; 82.1 µM in the test with NCI-H23 lung; over 100 µM with NCI-H460 lung; over 100 µM in the test on NCI/ADR-RES ovarian; over 100 µM in the test with OVCAR-3 ovarian; over 100 µM in the test on PC-3 prostate. In addition, the TGI with SF-268 CNS, with SF-295 CNS, in the test with SK-MEL-2 melanoma, in the test on SN12C renal, in the test with SNB-75 CNS and with SW-620 colon was over 100 µM in each case. For the same compound, the TGI with U251 CNS and in the test with UACC-62 melanoma was over 100 µM in each case.

Turning to `CCOC(=O)c1[nH]cc(C)c1-c1c[nH]c2ccccc12`, the TGI in the test with ACHN renal was over 71.4 µM; in the test with CCRF-CEM leukemia, over 78.1 µM; in the test with COLO 205 colon, 58.9 µM; in the test with HCC-2998 colon, over 100 µM; in the test on K-562 leukemia it was over 80.4 µM; in the test with LOX IMVI melanoma, 40.2 µM. The TGI in the test with MOLT-4 leukemia was 27.9 µM; with NCI-H23 lung it was over 100 µM; with NCI-H460 lung it was over 87.5 µM; in the test on NCI/ADR-RES ovarian, 72.5 µM; in the test on OVCAR-3 ovarian, over 76.8 µM; in the test with PC-3 prostate it was over 82.7 µM. In addition, the TGI was over 100 µM in the test with SF-268 CNS; over 93 µM with SF-295 CNS; over 93 µM in the test on SK-MEL-2 melanoma; over 100 µM with SN12C renal; 90.7 µM in the test on SNB-75 CNS; over 100 µM with SW-620 colon. The TGI with U251 CNS and with UACC-62 melanoma was over 100 µM throughout.

Regarding `COc1cc(C2S/C(=C/c3ccccc3)C(=O)N2c2cc(Cl)c(Cl)cc2Cl)cc(OC)c1OC` (stereo not given), the TGI was over 100 µM in the test on ACHN renal; over 88.9 µM with CCRF-CEM leukemia; over 100 µM in the test on COLO 205 colon; over 100 µM in the test with HCC-2998 colon; over 78.3 µM in the test with K-562 leukemia; over 79.3 µM with LOX IMVI melanoma. Moreover, the TGI in the test with MOLT-4 leukemia is over 72.4 µM; with NCI-H23 lung, over 100 µM; in the test with NCI-H460 lung, over 100 µM; in the test with NCI/ADR-RES ovarian, over 100 µM; in the test with OVCAR-3 ovarian, over 100 µM; with PC-3 prostate, over 100 µM. Besides, the TGI is over 100 µM in the test on SF-268 CNS; over 100 µM with SF-295 CNS; over 100 µM in the test with SK-MEL-2 melanoma; over 100 µM in the test on SN12C renal; 19.1 µM in the test on SNB-75 CNS; over 100 µM with SW-620 colon. In addition, the TGI in the test with U251 CNS and in the test on UACC-62 melanoma was over 100 µM in each case.

For `O=C1N=NC(=O)N1c1cc(C(F)(F)F)cc(C(F)(F)F)c1`, the TGI with ACHN renal was 14.2 µM; in the test on CCRF-CEM leukemia it was over 45 µM; in the test on COLO 205 colon, 3.35 µM; with HCC-2998 colon it was 14.7 µM; with K-562 leukemia, 32.9 µM; with LOX IMVI melanoma it was 11.7 µM. Further, the TGI is 40.3 µM with MOLT-4 leukemia; 6.48 µM in the test with NCI-H23 lung; 13.4 µM in the test with NCI-H460 lung; 11.5 µM in the test on NCI/ADR-RES ovarian; over 23 µM in the test with OVCAR-3 ovarian; 12.8 µM in the test on PC-3 prostate. For the same compound, the TGI with SF-268 CNS was 17.3 µM; in the test with SF-295 CNS, 9.49 µM; with SK-MEL-2 melanoma, 5.57 µM; with SN12C renal, 13.8 µM; with SNB-75 CNS it was 11.7 µM; with SW-620 colon, over 45.6 µM. In addition, the TGI with U251 CNS stood at 12.4 µM; in the test on UACC-62 melanoma it was 18.3 µM.

Regarding `O=[N+]([O-])c1cc(-c2nnc(C34CC5CC(CC(C5)C3)C4)o2)cc([N+](=O)[O-])c1`, the TGI in the test with ACHN renal is over 100 µM; with CCRF-CEM leukemia, over 100 µM; in the test with COLO 205 colon, 42.4 µM; in the test with HCC-2998 colon, over 100 µM; with K-562 leukemia, over 100 µM; in the test on LOX IMVI melanoma, over 100 µM. Moreover, the TGI in the test with MOLT-4 leukemia, in the test on NCI-H23 lung, in the test on NCI-H460 lung, in the test on NCI/ADR-RES ovarian, in the test with OVCAR-3 ovarian and in the test on PC-3 prostate was over 100 µM throughout. Moreover, the TGI in the test with SF-268 CNS is over 100 µM; in the test on SF-295 CNS it was over 100 µM; with SK-MEL-2 melanoma, over 100 µM; with SN12C renal, over 100 µM; in the test on SNB-75 CNS, over 100 µM; in the test with SW-620 colon, 37.8 µM. The TGI with U251 CNS and with UACC-62 melanoma was over 100 µM in each case.

For the compound `Cn1c(=O)cc(N=Nc2ccc(Cl)c(Cl)c2)[nH]c1=O`, the TGI with ACHN renal is 47.4 µM; in the test with CCRF-CEM leukemia, 68.8 µM; in the test on COLO 205 colon, 60.5 µM; in the test on HCC-2998 colon, over 100 µM; with K-562 leukemia it was 55.9 µM; in the test on LOX IMVI melanoma, 34.3 µM. For the same compound, the TGI in the test on MOLT-4 leukemia is 61 µM; in the test with NCI-H23 lung, 86.5 µM; with NCI-H460 lung it was over 100 µM; with NCI/ADR-RES ovarian it was 77.4 µM; in the test on OVCAR-3 ovarian, 33.2 µM; with PC-3 prostate it was 56.1 µM. Moreover, the TGI is 51.1 µM with SF-268 CNS; over 100 µM in the test on SF-295 CNS; 45.2 µM with SK-MEL-2 melanoma; over 100 µM in the test with SN12C renal; over 100 µM with SNB-75 CNS; 58.9 µM in the test with SW-620 colon. In addition, the figures for the TGI with U251 CNS and in the test with UACC-62 melanoma were 56.3 µM and over 100 µM, respectively.

For the compound `Cc1ccc2c(c1)C(C1Cc3cccc(C)c3C1=O)OC2=O` (stereo not given), the TGI in the test with ACHN renal, in the test on CCRF-CEM leukemia, in the test with COLO 205 colon, in the test with HCC-2998 colon, in the test on K-562 leukemia and in the test on LOX IMVI melanoma was over 100 µM in each case. Further, the TGI with MOLT-4 leukemia, in the test on NCI-H23 lung, in the test with NCI-H460 lung, in the test with NCI/ADR-RES ovarian, in the test with OVCAR-3 ovarian and in the test with PC-3 prostate was over 100 µM in each case. For the same compound, the TGI in the test with SF-268 CNS, in the test on SF-295 CNS, with SK-MEL-2 melanoma, in the test on SN12C renal, with SNB-75 CNS and with SW-620 colon was over 100 µM each time. Besides, the TGI in the test on U251 CNS and in the test with UACC-62 melanoma was over 100 µM each time.

As for `COc1cc([C@@H]2c3cc4c(cc3[C@@H](OC3OC5COC(C)OC5C(OC(=O)CN5CCN(C)CC5)C3OC(=O)CN3CCN(C)CC3)C3COC(=O)[C@@H]32)OCO4)cc(OC)c1OC(=O)CN1CCN(C)CC1` (stereo not given in full), the TGI in the test with ACHN renal is over 100 µM; in the test with CCRF-CEM leukemia, 46.6 µM; in the test with COLO 205 colon it was over 100 µM; in the test on HCC-2998 colon it was over 100 µM; with K-562 leukemia it was over 100 µM; in the test with LOX IMVI melanoma it was over 100 µM. Further, the TGI was 42.1 µM in the test with MOLT-4 leukemia; over 100 µM in the test on NCI-H23 lung; over 100 µM in the test on NCI-H460 lung; over 100 µM in the test on NCI/ADR-RES ovarian; over 100 µM in the test on OVCAR-3 ovarian; over 100 µM with PC-3 prostate. Also, the TGI in the test with SF-268 CNS was over 100 µM; in the test on SF-295 CNS, over 100 µM; in the test on SK-MEL-2 melanoma it was over 100 µM; with SN12C renal, over 100 µM; with SNB-75 CNS, 84.9 µM; in the test with SW-620 colon, over 100 µM. Besides, the TGI in the test on U251 CNS and in the test on UACC-62 melanoma was over 100 µM in each case.
